Patent US12264175B2, “Compositions and methods for capping RNAS” (Verve Therapeutics, Inc., priority 2020, dated 2025)

What was measured:
T7 RNA polymerase = T7 RNA polymerase (Escherichia phage T7, UniProt P00573); assay: One-pot IVT preparation of 5′ capped mRNA (production yield, full-length purity); format: biochemical
Excerpt: The 5′ end initiator, 1007a, (FIG. 1A) was used to prepare capped mRNAs that encode for ABE and luciferase proteins. In this Example and for all others described herein, the ABE mRNA sequence was MA004 (SEQ. 0001) and the luciferase mRNA sequence was the Photinus pyralis (Firefly) luciferase sequence described in NCBI reference sequence XM_031473197.1. These mRNA can be produced by different methods well known in the art. One of such methods used herein was in vitro transcription (IVT) using T7 polymerase; or in other embodiments, additional RNA polymerase variants. This IVT reaction to produce mRNA used a linearized DNA template that comprised a T7 polymerase promoter and associated regulatory sequences, mRNA coding sequence (CDS), 3′ and 5′ untranslated regions (UTRs), poly A tail, and additional sequence elements to facilitate and modulate mRNA stability and in vivo performance. Prior to IVT, the DNA template was in the form of a plasmid; in other embodiments the DNA template is in the form of a PCR product, synthetic DNA product, or any other double-stranded DNA construct. Linearization of the DNA template with a restriction digestion enzyme was performed in order to promote run-off transcription. The typical IVT reaction included T7 polymerase, DNA template, RNase inhibitor, cap analog, inorganic pyrophosphatase, and the naturally occurring ribonucleoside triphosphates (NTPs) such as GTP, ATP, CTP, and N1-methyl pseudouridine triphosphosphate; in some embodiments NTPs include UTP or modified NTPs such as pseudouridine, 5′methyl cytidine, 5-methoxy uridine, N6-methyl adenosine, and N4-acetyl cytidine. The 1007a 5′ end initiator was added to the IVT reaction along with ATP, GTP, CTP, and N1-methyl pseudouridine triphosphate at a 1:1 initiator-to-NTP molar ratio and additional ratios described in Example 5 (B). Poly A tail was encoded in the DNA template that was added to the mRNA during transcription; in some instances, poly A tail is added to the mRNA after the IVT reaction using an RNA ligase enzyme. Finally, T7 RNA polymerase was added to the mixture and the IVT reaction was run at 37° C. for about 1-4 hours. After IVT, DNase was added to the transcription mixture to remove DNA template; in some instances, residual DNA is removed with chromatography. This mRNA was purified to remove residual reaction products and impurities, and stored in 1 mM citrate buffer. Characterization of production yield and mRNA full-length purity was performed by UV spectrometry and capillary gel electrophoresis methods, which are known in the art. […] Similar IVT and purification process are used to produce mRNA encoding SpCas9, Cas12b, CBE, and other ABEs; in all cases the DNA template, reaction conditions, and purification parameters are optimized for the specific gene of interest.
Similarly, ABE encoding mRNA with 5′ end region, 1107a, (FIG. 1B) was produced and characterized as described in the paragraph above.

[1] = test system: primary human liver hepatocytes (hPH); assay: ABE protein levels by ELISA after mRNA transfection of primary human hepatocytes; format: cell-based; details: ABE mRNA transfected to hPH cells, FIG. 6
Protocol: Primary human liver hepatocytes (hPH), primary cynomolgus liver hepatocytes (cPH), or primary mouse liver hepatocytes (mPH) are cultured per the manufacturer's protocol. In brief, the cells are thawed and resuspended in hepatocyte thawing medium followed by centrifugation at 100 g for 10 min at 4° C. The supernatant is discarded, and the pelleted cells resuspended in hepatocyte plating medium. Each vial contains ˜5 million cells that are used for plating one 24-well plate. Plated cells are allowed to settle and adhere for 4-6 h in a tissue culture incubator at 37° C. under 5% CO2 atmosphere. After incubation, cells are checked for monolayer formation. The incubating media is then replaced with fresh hepatocyte maintenance media The cells thus are ready for transfection using a transfection agent such as MessengerMAX. Solution A: desired amount of single guide RNA (sgRNA) is mixed with 1:1 wt ratio of mRNA in OptiMEM. Solution B: MessengerMAX in OptiMEM. After mixing solutions A and B, the mixture is incubated at room temperature for 20 minutes, and then the incubated solution is added dropwise to each well of cells. The cells are then allowed to remain at 37° C. for 3 days. […] For example, mRNA with 5′ end region motifs, 1007a and 1107a, were transfected to hPH cells as described above, the cells were lysed, and ABE protein levels were measured by ELISA. […]

Chain of T7 RNA polymerase (P00573 whole entry): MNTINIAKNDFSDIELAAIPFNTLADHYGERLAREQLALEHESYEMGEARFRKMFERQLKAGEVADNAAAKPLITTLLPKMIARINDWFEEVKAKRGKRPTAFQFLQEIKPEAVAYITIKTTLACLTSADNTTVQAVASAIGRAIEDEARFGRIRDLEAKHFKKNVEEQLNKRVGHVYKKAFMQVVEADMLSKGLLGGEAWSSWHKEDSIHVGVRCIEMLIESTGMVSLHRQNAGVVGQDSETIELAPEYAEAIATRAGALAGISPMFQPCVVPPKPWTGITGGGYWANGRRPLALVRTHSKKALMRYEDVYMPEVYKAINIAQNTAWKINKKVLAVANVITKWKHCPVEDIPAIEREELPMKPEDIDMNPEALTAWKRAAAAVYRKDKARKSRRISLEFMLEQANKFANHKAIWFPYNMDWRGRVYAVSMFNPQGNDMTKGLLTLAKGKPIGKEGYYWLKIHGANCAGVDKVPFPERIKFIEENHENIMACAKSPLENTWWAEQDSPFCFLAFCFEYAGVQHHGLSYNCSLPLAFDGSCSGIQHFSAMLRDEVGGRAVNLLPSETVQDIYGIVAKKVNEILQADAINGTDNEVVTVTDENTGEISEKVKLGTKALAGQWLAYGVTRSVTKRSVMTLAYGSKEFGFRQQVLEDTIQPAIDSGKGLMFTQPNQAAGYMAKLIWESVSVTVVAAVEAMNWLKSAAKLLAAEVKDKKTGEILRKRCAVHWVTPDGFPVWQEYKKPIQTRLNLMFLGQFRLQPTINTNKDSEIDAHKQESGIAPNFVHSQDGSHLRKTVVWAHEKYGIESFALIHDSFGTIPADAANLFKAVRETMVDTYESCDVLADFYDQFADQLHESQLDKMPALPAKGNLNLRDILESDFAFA

For `COC1C(OP([O-])(=S)OCC2OC(n3cnc4c(=O)[nH]c(N)nc43)C(O)C2O)C(COP(=O)(O)OP(=O)(O)OP(=O)(O)OCC2OC(n3c[n+](C)c4c(=O)[nH]c(N)nc43)C(O)C2O)OC1n1cnc2c(N)ncnc21` (stereo not shown) [1007a, m^7G(ppp)Am(ps)G], the “final production yield of mRNA” value (T7 RNA polymerase; ABE encoding mRNA made with the 5′ end initiator, T7 IVT, FIG. 2) was “about 3.3 mg per 1 ml of IVT reaction”, the mRNA full-length purity (T7 RNA polymerase; ABE encoding mRNA made with the 5′ end initiator, capillary gel electrophoresis, FIG. 3) was “about 88%” and the “amount of full-length mRNA produced” value (T7 RNA polymerase; initiator-to-NTP ratio ranging from 1:1 down to 1:5, FIG. 3) was “did not reduce”. The “ABE protein levels as compared to mRNA with 5′ end region motif 1002a” value [1] was “similar”.
